Assay results reported in US20220370326A1, “TOPICAL COMPOSITIONS AND METHODS OF USING SAME AGAINST MITOCHONDRIAL FRAGMENTATION” (Conopco, Inc., d/b/a UNILEVER, priority 2019, published 2022).
Marks after values point to notes of the source that are not given here.

System: human keratinocytes
Assay: Mitochondrial fragmentation in keratinocytes - UV study (TPEF imaging of NADH, Fourier PSD analysis)
Type: cell-based
Conditions: B3 10 mM, SAMe 500 uM; for Effect on mitochondrial fragmentation in Non UV-exposed keratinocytes (in words) / Effect on UV-induced mitochondrial fragmentation (in words): significance P </= 0.05; for Mitochondrial Fragmentation, (+) UV (4 days) / Mitochondrial Fragmentation, (−) UV (3 days): human keratinocytes, higher value = less protection; for Mitochondrial Fragmentation, (+) UV (4 days): 4 days of daily UV exposure (4 J/cm^2 UVA+UVB, 14 min); for Mitochondrial Fragmentation, (−) UV (3 days): not UV-exposed, 3 days of treatment; for Effect on UV-induced mitochondrial fragmentation (in words): keratinocytes, UV exposure for 4 days
Method: Test compounds (B3 and SAMe) were purchased from Sigma (St. Loius, MO). Cell culture growth media (Epilife media with calcium (Cat#MEPI500CA) and Epilife media supplement HKGS 100X (Cat#S-001-5)) was purchased from Thermofisher (Waltham, Mass.). Cryopreserved human keratinocytes cells (˜1×10^6 cells) were plated on 12-well glass bottom plates at a confluence of ˜15%. The cells were suspended in primary keratinocyte growth media (Epilife media with calcium) and incubated @ 37° C. for 1d (Day 0). At Day 1, cells began treatment with supplemented primary keratinocyte growth media (Epilife media with calcium supplemented with HKGS 100X; […]) without test compound (Control sample) or containing test compounds B3 (10 mM), SAMe (500 μM) or B3 (10 mM)+SAMe (500 uM). Cell treatment (25m1 media with or without test compounds as above) continued daily for 2 additional days (Days 2 and 3). On Day 4, cells were subjected to UV treatment by replacing media with PBS, exposing cells to UV light (4 J/cm^2 of UVA+UVB) for 14 min and feeding cells with media with or without corresponding test compounds as defined above. UV treatments continued daily for 3 additional days (Days 5, 6 and 7). Image acquisition and analysis on all wells to assess mitochondrial fragmentation was conducted on Day 1, 3, 5 and 8.
For two-photon excited fluorescence (TPEF) imaging, cell cultures were placed in microscope-compatible micro-incubator system, which maintained 37° C. within a humidified environment throughout the imaging session. HEPES buffering agent (Sigma) was added to cell cultures before imaging, which maintained the pH of cell cultures throughout the imaging session. Images were obtained using a Leica TCS SP8 confocal microscope equipped with a tunable (680-1300 nm) titanium-sapphire laser (InSight Deep See; Spectra Physics; Mountain View, Calif.). Images (1024×1024 pixels; 386×386 μm) were acquired using water-immersion 25x objective (NA 0.95; 2.4 mm working distance), with simultaneous collection by two non-descanned photomultiplier tube (PMT) detectors using a filter cube containing filters from Chroma (Bellows Falls, VT), including a 700 nm short pass filter (ET700SP-2P) and a 495 nm dichroic mirror (495DCXR). To isolate NADH fluorescence, a 460(±20) nm emission filter (Chroma, ET460/40M-2P), corresponding to the NADH emission peak, was placed before one of the non-descanned detectors. NADH fluorescence images were acquired from this 460 nm channel using 755 nm excitation. FAD fluorescence was isolated using a 525(±25) nm emission filter (Chroma, ET525/50M-2P) for the other non-descanned detector and 860 nm excitation. The two-photon action cross section of NADH decreases by several orders of magnitude between 755 nm and 860 nm excitation, enabling an efficient isolation of FAD at longer wavelengths. The fluorescence lifetime images (512×512 pixels; 386×386 μm) corresponding to NADH were acquired under the same excitation and emission settings, using SymPho software. PMT gain was adjusted for each image to maximize contrast while preventing a saturated pixel intensity value. The PMT gain and laser power were recorded for each image and used to normalize fluorescence intensity.
To assess mitochondrial fragmentation, a previously-established Fourier transform technique was used to obtain power spectral density (PSD) curves from each image. […]

## NC(=O)c1cccnc1 [B3, Nicotinamide]
  Effect on mitochondrial fragmentation in Non UV-exposed keratinocytes (in words): does not significantly reduce mitochondrial fragmentation
  Mitochondrial Fragmentation, (+) UV (4 days): 1.34 ^d
  Mitochondrial Fragmentation, (−) UV (3 days): 1.18
  Effect on UV-induced mitochondrial fragmentation (in words): effective at reducing this UV-induced effect down to control levels

## C[S+](CC[C@H](N)C(=O)[O-])C[C@H]1O[C@@H](n2cnc3c(N)ncnc32)[C@H](O)[C@@H]1O (stereo partly drawn) [SAMe, S-adenosyl-L-methionine]
  Effect on mitochondrial fragmentation in Non UV-exposed keratinocytes (in words): does not significantly reduce mitochondrial fragmentation
  Mitochondrial Fragmentation, (+) UV (4 days): 1.58 ^c,e
  Mitochondrial Fragmentation, (−) UV (3 days): 1.30
  Effect on UV-induced mitochondrial fragmentation (in words): increases mitochondrial fragmentation beyond UV-exposed levels
